Data from patent publication US20090018134A1, “Compounds - 945” (AstraZeneca AB, priority 2007, published 2009).

These molecules were tested against T1, mTOR (Homo sapiens, UniProt P42345) (assay: In Vitro mTOR Kinase Assay (Echo), Test (a)(ii)). Conditions: read-out: mTOR Kinase Assay (Echo).
T1 construct: FLAG; made in house
Format: biochemical
Outline: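 Compounds were acoustically dispensed, then incubated with FLAG-tagged mTOR (1362-2549) for 2 hours at room temperature. Reactions were quenched with EDTA plus detection antibody and AlphaScreen beads and left overnight in the dark before reading. Loss of phospho-T389 signal gave IC50 values.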

T1 sequence (P42345 1362-2549): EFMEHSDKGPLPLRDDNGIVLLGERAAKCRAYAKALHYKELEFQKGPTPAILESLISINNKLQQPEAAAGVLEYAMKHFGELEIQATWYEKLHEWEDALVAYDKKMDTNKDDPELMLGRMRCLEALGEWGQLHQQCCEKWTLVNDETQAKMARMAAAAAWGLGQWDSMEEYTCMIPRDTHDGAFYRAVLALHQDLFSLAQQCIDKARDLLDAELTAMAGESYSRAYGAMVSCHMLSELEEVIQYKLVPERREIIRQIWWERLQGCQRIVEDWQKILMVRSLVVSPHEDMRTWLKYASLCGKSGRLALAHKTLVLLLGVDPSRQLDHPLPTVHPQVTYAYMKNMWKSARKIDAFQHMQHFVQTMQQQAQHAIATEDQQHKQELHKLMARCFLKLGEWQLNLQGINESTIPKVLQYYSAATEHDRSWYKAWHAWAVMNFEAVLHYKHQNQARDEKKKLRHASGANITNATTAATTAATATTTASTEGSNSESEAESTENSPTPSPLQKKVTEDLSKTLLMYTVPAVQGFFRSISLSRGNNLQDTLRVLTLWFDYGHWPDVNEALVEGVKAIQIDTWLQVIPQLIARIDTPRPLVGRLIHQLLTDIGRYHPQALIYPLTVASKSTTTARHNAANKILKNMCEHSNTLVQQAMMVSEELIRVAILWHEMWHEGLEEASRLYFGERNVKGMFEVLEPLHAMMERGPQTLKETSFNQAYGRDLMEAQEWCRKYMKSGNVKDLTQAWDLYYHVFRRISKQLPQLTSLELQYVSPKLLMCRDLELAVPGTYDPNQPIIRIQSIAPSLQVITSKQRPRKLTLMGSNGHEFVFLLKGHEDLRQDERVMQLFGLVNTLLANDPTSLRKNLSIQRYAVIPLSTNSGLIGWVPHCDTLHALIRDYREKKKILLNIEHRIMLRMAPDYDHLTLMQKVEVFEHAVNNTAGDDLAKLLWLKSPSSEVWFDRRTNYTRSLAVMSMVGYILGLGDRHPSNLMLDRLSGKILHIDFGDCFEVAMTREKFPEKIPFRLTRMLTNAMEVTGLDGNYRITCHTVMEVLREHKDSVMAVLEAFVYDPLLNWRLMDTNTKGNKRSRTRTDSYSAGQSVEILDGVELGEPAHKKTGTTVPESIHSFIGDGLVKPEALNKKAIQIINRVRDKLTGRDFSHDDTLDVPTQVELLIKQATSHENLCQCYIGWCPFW

Point of comparison: `CS(=O)(=O)C1(c2cc(N3CCOCC3)nc(-c3ccc(NC(=O)NCCCO)cc3)n2)CCCC1` [Example 12o, 3-(3-hydroxypropyl)-1-[4-[4-(1-methylsulfonylcyclopentyl)-6-morpholin-4-ylpyrimidin-2-yl]phenyl]urea], IC50 5.09 nM. Against it:
- CCCNC(=O)Nc1ccc(-c2nc(N3CCOC[C@@H]3C)cc(C3(S(=O)(=O)CC)CC3)n2)cc1 [Example 11h, 3-[4-[4-(1-ethylsulfonylcyclopropyl)-6-[(3S)-3-methylmorpholin-4-yl]pyrimidin-2-yl]phenyl]-1-propyl-urea] — 1.8-fold higher, 9.13 nM
- CCS(=O)(=O)C1(c2cc(N3CCOC[C@@H]3C)nc(-c3ccc(NC(=O)NCC(C)C)cc3)n2)CC1 [Example 11i, 1-[4-[4-(1-ethylsulfonylcyclopropyl)-6-[(3S)-3-methylmorpholin-4-yl]pyrimidin-2-yl]phenyl]-3-(2-methylpropyl)urea] — 5.8-fold higher, 29.4 nM
- CCS(=O)(=O)C1(c2cc(N3CCOC[C@@H]3C)nc(-c3ccc(NC(=O)NCCCO)cc3)n2)CC1 [Example 11j, 1-[4-[4-(1-ethylsulfonylcyclopropyl)-6-[(3S)-3-methylmorpholin-4-yl]pyrimidin-2-yl]phenyl]-3-(3-hydroxypropyl)urea] — 2.4-fold higher, 12.2 nM
- CCS(=O)(=O)C1(c2cc(N3CCOC[C@@H]3C)nc(-c3ccc(NC(=O)Nc4ccc(C(F)(F)F)cc4)cc3)n2)CC1 [Example 11k, 1-[4-[4-(1-ethylsulfonylcyclopropyl)-6-[(3S)-3-methylmorpholin-4-yl]pyrimidin-2-yl]phenyl]-3-[4-(trifluoromethyl)phenyl]urea] — 1.5-fold lower, 3.32 nM
- CCS(=O)(=O)C1(c2cc(N3CCOC[C@@H]3C)nc(-c3ccc(NC(=O)Nc4ccccn4)cc3)n2)CC1 [Example 11l, 1-[4-[4-(1-ethylsulfonylcyclopropyl)-6-[(3S)-3-methylmorpholin-4-yl]pyrimidin-2-yl]phenyl]-3-pyridin-2-yl-urea] — within 1.5-fold, 3.56 nM
- CCS(=O)(=O)C1(c2cc(N3CCOC[C@@H]3C)nc(-c3ccc(NC(=O)Nc4cnn(C)c4)cc3)n2)CC1 [Example 11m, 1-[4-[4-(1-ethylsulfonylcyclopropyl)-6-[(3S)-3-methylmorpholin-4-yl]pyrimidin-2-yl]phenyl]-3-(1-methylpyrazol-4-yl)urea] — within 1.5-fold, 4.37 nM
- CS(=O)(=O)C1(c2cc(N3CCOCC3)nc(-c3ccc(NC(=O)NC4CC4)cc3)n2)CC1 [Example 12, 3-Cyclopropyl-1-[4-[4-(1-methylsulfonylcyclopropyl)-6-morpholin-4-ylpyrimidin-2-yl]phenyl]urea] — within 1.5-fold, 4.21 nM
- CNC(=O)Nc1ccc(-c2nc(N3CCOCC3)cc(C3(S(C)(=O)=O)CC3)n2)cc1 [Example 12a, 3-methyl-1-[4-[4-(1-methylsulfonylcyclopropyl)-6-morpholin-4-ylpyrimidin-2-yl]phenyl]urea] — 3-fold lower, 1.67 nM
- CCNC(=O)Nc1ccc(-c2nc(N3CCOCC3)cc(C3(S(C)(=O)=O)CC3)n2)cc1 [Example 12b, 3-ethyl-1-[4-[4-(1-methylsulfonylcyclopropyl)-6-morpholin-4-ylpyrimidin-2-yl]phenyl]urea] — 1.9-fold lower, 2.71 nM
- CS(=O)(=O)C1(c2cc(N3CCOCC3)nc(-c3ccc(NC(=O)NC4CCC4)cc3)n2)CC1 [Example 12c, 3-cyclobutyl-1-[4-[4-(1-methylsulfonylcyclopropyl)-6-morpholin-4-ylpyrimidin-2-yl]phenyl]urea] — 3.3-fold lower, 1.52 nM
- CS(=O)(=O)C1(c2cc(N3CCOCC3)nc(-c3ccc(NC(=O)NCCO)cc3)n2)CC1 [Example 12d, 3-(2-hydroxyethyl)-1-[4-[4-(1-methylsulfonylcyclopropyl)-6-morpholin-4-ylpyrimidin-2-yl]phenyl]urea] — 3.3-fold lower, 1.55 nM
- CC(C)(CO)NC(=O)Nc1ccc(-c2nc(N3CCOCC3)cc(C3(S(C)(=O)=O)CC3)n2)cc1 [Example 12e, 3-(1-hydroxy-2-methylpropan-2-yl)-1-[4-[4-(1-methylsulfonylcyclopropyl)-6-morpholin-4-ylpyrimidin-2-yl]phenyl]urea] — within 1.5-fold, 4.59 nM
- CN(C)CCNC(=O)Nc1ccc(-c2nc(N3CCOCC3)cc(C3(S(C)(=O)=O)CC3)n2)cc1 [Example 12f, 3-(2-dimethylaminoethyl)-1-[4-[4-(1-methylsulfonylcyclopropyl)-6-morpholin-4-ylpyrimidin-2-yl]phenyl]urea] — 12-fold higher, 60.5 nM
- CCCNC(=O)Nc1ccc(-c2nc(N3CCOCC3)cc(C3(S(C)(=O)=O)CC3)n2)cc1 [Example 12g, 1-[4-[4-(1-methylsulfonylcyclopropyl)-6-morpholin-4-ylpyrimidin-2-yl]phenyl]-3-propylurea] — 1.9-fold lower, 2.73 nM
- CS(=O)(=O)C1(c2cc(N3CCOCC3)nc(-c3ccc(NC(=O)NCCCO)cc3)n2)CC1 [Example 12h, 3-(3-hydroxypropyl)-1-[4-[4-(1-methylsulfonylcyclopropyl)-6-morpholin-4-ylpyrimidin-2-yl]phenyl]urea] — within 1.5-fold, 3.92 nM
- Cn1cc(NC(=O)Nc2ccc(-c3nc(N4CCOCC4)cc(C4(S(C)(=O)=O)CC4)n3)cc2)cn1 [Example 12i, 3-(1-methylpyrazol-4-yl)-1-[4-[4-(1-methylsulfonylcyclopropyl)-6-morpholin-4-ylpyrimidin-2-yl]phenyl]urea] — 6.6-fold lower, 0.771 nM
- CS(=O)(=O)C1(c2cc(N3CCOCC3)nc(-c3ccc(NC(=O)NC4CC4)cc3)n2)CCCC1 [Example 12j, 3-cyclopropyl-1-[4-[4-(1-methylsulfonylcyclopentyl)-6-morpholin-4-ylpyrimidin-2-yl]phenyl]urea] — 3-fold lower, 1.67 nM
- CNC(=O)Nc1ccc(-c2nc(N3CCOCC3)cc(C3(S(C)(=O)=O)CCCC3)n2)cc1 [Example 12k, 3-methyl-1-[4-[4-(1-methylsulfonylcyclopentyl)-6-morpholin-4-ylpyrimidin-2-yl]phenyl]urea] — within 1.5-fold, 4.3 nM
- CS(=O)(=O)C1(c2cc(N3CCOCC3)nc(-c3ccc(NC(=O)NCCO)cc3)n2)CCCC1 [Example 12l, 3-(2-hydroxyethyl)-1-[4-[4-(1-methylsulfonylcyclopentyl)-6-morpholin-4-ylpyrimidin-2-yl]phenyl]urea] — 3.7-fold lower, 1.38 nM
- CC(C)(CO)NC(=O)Nc1ccc(-c2nc(N3CCOCC3)cc(C3(S(C)(=O)=O)CCCC3)n2)cc1 [Example 12m, 3-(1-hydroxy-2-methylpropan-2-yl)-1-[4-[4-(1-methylsulfonylcyclopentyl)-6-morpholin-4-ylpyrimidin-2-yl]phenyl]urea] — 2-fold higher, 10.1 nM
- CN(C)CCNC(=O)Nc1ccc(-c2nc(N3CCOCC3)cc(C3(S(C)(=O)=O)CCCC3)n2)cc1 [Example 12n, 3-(2-dimethylaminoethyl)-1-[4-[4-(1-methylsulfonylcyclopentyl)-6-morpholin-4-ylpyrimidin-2-yl]phenyl]urea] — 47-fold higher, 238 nM
- CS(=O)(=O)C1(c2cc(N3CCOCC3)nc(-c3ccc(NC(=O)NC4CC4)cc3)n2)CCC1 [Example 12p, 3-cyclopropyl-1-[4-[4-(1-methylsulfonylcyclobutyl)-6-morpholin-4-ylpyrimidin-2-yl]phenyl]urea] — 3.6-fold lower, 1.4 nM
- CNC(=O)Nc1ccc(-c2nc(N3CCOCC3)cc(C3(S(C)(=O)=O)CCC3)n2)cc1 [Example 12q, 3-methyl-1-[4-[4-(1-methylsulfonylcyclobutyl)-6-morpholin-4-ylpyrimidin-2-yl]phenyl]urea] — 3.1-fold lower, 1.62 nM
- CS(=O)(=O)C1(c2cc(N3CCOCC3)nc(-c3ccc(NC(=O)NCCO)cc3)n2)CCC1 [Example 12r, 3-(2-hydroxyethyl)-1-[4-[4-(1-methylsulfonylcyclobutyl)-6-morpholin-4-ylpyrimidin-2-yl]phenyl]urea] — 5.1-fold lower, 0.991 nM
- CN(C)CCNC(=O)Nc1ccc(-c2nc(N3CCOCC3)cc(C3(S(C)(=O)=O)CCC3)n2)cc1 [Example 12s, 3-(2-dimethylaminoethyl)-1-[4-[4-(1-methylsulfonylcyclobutyl)-6-morpholin-4-ylpyrimidin-2-yl]phenyl]urea] — 26-fold higher, 134 nM

Same assay, conditions: table of enzyme assay Test (a)(ii); read-out: Test (a)(ii) IC50

Point of comparison: `CC(C)(CO)NC(=O)Nc1ccc(-c2nc(N3CCOCC3)cc(C3(S(=O)(=O)C4CC4)CC3)n2)cc1` [Example 13e, 1-[4-[4-(1-cyclopropylsulfonylcyclopropyl)-6-morpholin-4-ylpyrimidin-2-yl]phenyl]-3-(1-hydroxy-2-methylpropan-2-yl)urea], IC50 30.1 nM. Against it:
- CS(=O)(=O)C1(c2cc(N3CCOCC3)nc(-c3ccc(NC(=O)NC4CCC4)cc3)n2)CC1 [Example 12c, 3-cyclobutyl-1-[4-[4-(1-methylsulfonylcyclopropyl)-6-morpholin-4-ylpyrimidin-2-yl]phenyl]urea] — 4-fold lower, 7.51 nM
- CN(C)CCNC(=O)Nc1ccc(-c2nc(N3CCOCC3)cc(C3(S(C)(=O)=O)CC3)n2)cc1 [Example 12f, 3-(2-dimethylaminoethyl)-1-[4-[4-(1-methylsulfonylcyclopropyl)-6-morpholin-4-ylpyrimidin-2-yl]phenyl]urea] — 12-fold higher, 350 nM
- CN(C)CCNC(=O)Nc1ccc(-c2nc(N3CCOCC3)cc(C3(S(C)(=O)=O)CCC3)n2)cc1 [Example 12s, 3-(2-dimethylaminoethyl)-1-[4-[4-(1-methylsulfonylcyclobutyl)-6-morpholin-4-ylpyrimidin-2-yl]phenyl]urea] — 3.9-fold higher, 117 nM
- O=C(Nc1ccc(-c2nc(N3CCOCC3)cc(C3(S(=O)(=O)C4CC4)CC3)n2)cc1)NC1CC1 [Example 13, 3-Cyclopropyl-1-[4-[4-(1-cyclopropylsulfonylcyclopropyl)-6-morpholin-4-ylpyrimidin-2-yl]phenyl]urea] — 8.4-fold lower, 3.57 nM
- CNC(=O)Nc1ccc(-c2nc(N3CCOCC3)cc(C3(S(=O)(=O)C4CC4)CC3)n2)cc1 [Example 13a, 1-[4-[4-(1-cyclopropylsulfonylcyclopropyl)-6-morpholin-4-ylpyrimidin-2-yl]phenyl]-3-methylurea] — 8.8-fold lower, 3.41 nM
- CCNC(=O)Nc1ccc(-c2nc(N3CCOCC3)cc(C3(S(=O)(=O)C4CC4)CC3)n2)cc1 [Example 13b, 1-[4-[4-(1-cyclopropylsulfonylcyclopropyl)-6-morpholin-4-ylpyrimidin-2-yl]phenyl]-3-ethylurea] — 8.1-fold lower, 3.7 nM
- O=C(NCCO)Nc1ccc(-c2nc(N3CCOCC3)cc(C3(S(=O)(=O)C4CC4)CC3)n2)cc1 [Example 13d, 1-[4-[4-(1-cyclopropylsulfonylcyclopropyl)-6-morpholin-4-ylpyrimidin-2-yl]phenyl]-3-(2-hydroxyethyl)urea] — 8.6-fold lower, 3.51 nM
- CN(C)CCNC(=O)Nc1ccc(-c2nc(N3CCOCC3)cc(C3(S(=O)(=O)C4CC4)CC3)n2)cc1 [Example 13f, 1-[4-[4-(1-cyclopropylsulfonylcyclopropyl)-6-morpholin-4-ylpyrimidin-2-yl]phenyl]-3-(2-dimethylaminoethyl)urea] — 13-fold higher, 386 nM
- CCCNC(=O)Nc1ccc(-c2nc(N3CCOCC3)cc(C3(S(=O)(=O)C4CC4)CC3)n2)cc1 [Example 13g, 1-[4-[4-(1-cyclopropylsulfonylcyclopropyl)-6-morpholin-4-ylpyrimidin-2-yl]phenyl]-3-propylurea] — 6.3-fold lower, 4.79 nM
